Reference: patent US20050228046A1, “Alkylamine as an antimicrobial agent in ophthalmic compositions” (ADVANCED MEDICAL OPTICS, INC., priority 2004, published 2005)

Key:
[1] = test system: Candida albicans, ATCC 10231; assay: Microbiology challenge test, log drop; format: cell-based; conditions: for Log drop at 6 hour: Table 6: Myristylamine 0.001 % w/w
Experimental: (§1) The following is the procedure by which various antimicrobial agents and solutions are tested for their ability to reduce microbial loads over short periods of time, typically 24 hours and less. The procedure is a basic microbiology challenge test, which involves the inoculation of test product aliquots with a known number of viable cells of several test organisms, and assay for the survivors at various time intervals. The results are used to calculate log drops at soak times and construct kill-curves (graphs of survivors versus time) if desired.
(§2) Candida albicans, ATCC 10231, is one of five organisms specified per FDA and ISO/CLI tests for the testing of contact lens disinfectants (FDA Premarket Notification (510k) Guidance Document for Contact Lens Care Products, Appendix B, Apr. 1, 1997 and ISO/FDIS 14729: Ophthalmic optics-Contact lens care products-Microbiological requirements and test methods for products and regimens for hygienic management of contact lenses, January 2001). Contact lens disinfectants are also known as contact lens multi-purpose solutions when they are used for rinsing, cleaning, disinfection, storage and rewetting contact lenses. The five FDA/ISO specified test organisms are listed below: • Serratia marcescens, ATCC 13880 • Staphylococcus aureus, ATCC 6538 • Pseudomonas aeruginosa, ATCC 9027 • Candida albicans, ATCC 10231 • Fusarium solani, ATCC 36031
(§3) The specific test procedure for testing antimicrobial activity against the five FDA/ISO specified test organisms is as follows (C. albicans is provided as a specific example): Test samples are sterile-filtered through a 0.22 micron sterile filter into sterile plastic high density polyethylene bottles or plastic flasks. A 10-mL aliquot of test sample is aseptically transferred into a sterile polystyrene plastic test tube. Sterile saline (0.90 w/v % NaCl) with 0.05 w/v % Polysorbate 80 (SS+TWEEN) is transferred into a separate control tube. All samples and control are stored at 20-25° C. throughout the duration of the test.
(§4) Test cultures of Candida albicans, ATCC 10231 are prepared in the conventional manner. Candida albicans cultures are grown on agar slants from primary frozen, lyophilized or “Culti-loop®” cultures. Three mL of sterile 0.9% saline is used to gently dislodge culture growth from the agar surface. The resulting harvest is transferred to an appropriate screw cap test tube containing glass beads and vortexed for approximately one minute. The vortexed harvest is diluted as needed with sterile 0.9% saline to prepare the culture inoculum with a concentration of 1×10e8 CFU/mL. Fifty microliters of culture inoculum is added to 10.0 mL of each test sample and control, so that the final inoculum level is in the range of 1×10e5 to 1×10e6 CFU(colony forming units) per mL of Candida albicans, ATCC 10231. Each sample and control tube is vortexed briefly to disperse the inoculum. Contact time intervals for testing activity against Candida are typically 4 or 6 hours, to conform to the intended product label instructions for contact lens soak time.
(§5) Aerobic Plate Count Methods are performed in order to quantitate test samples for their levels of survivors. At appropriate assay times, 0.5 mL well-vortexed aliquots are removed from sample tubes and added to glass test tubes containing 4.5 mL Letheen Neutralizing Broth media (Berton, Dickinson and Company, Sparks, Md.). After a previously determined, validated neutralizing time period, these samples are diluted 10-fold through serial dilutions using glass test tubes containing 4.5 mL Letheen Neutralizing Broth media. Aliquots of 0.1 mL are removed from each dilution tube and spread-plate applied to agar plates containing Sabouraud Dextrose Agar (SAB)(Berton, Dickinson and Company, Sparks, Md.). 10^1 to 10^4 CFU/mL survivor levels are quantitated. […]

[2] = test system: Fusarium solani, ATCC 36031; assay: Microbiology challenge test, log drop; format: cell-based; conditions: for Log drop at 6 hour: Table 6: Myristylamine 0.001 % w/w
Experimental: as §1, §2, §3, §4, §5

[3] = test system: Pseudomonas aeruginosa, ATCC 9027; assay: Microbiology challenge test, log drop; format: cell-based; conditions: for Log drop at 6 hour: Table 6: Myristylamine 0.001 % w/w
Experimental: as §1, §2, §3, §4, §5

[4] = test system: Serratia marcescens, ATCC 13880; assay: Microbiology challenge test, log drop; format: cell-based; conditions: for Log drop at 6 hour: Table 6: Myristylamine 0.001 % w/w
Experimental: as §1, §2, §3, §4, §5

[5] = test system: Staphylococcus aureus, ATCC 6538; assay: Microbiology challenge test, log drop; format: cell-based; conditions: for Log drop at 6 hour: Table 6: Myristylamine 0.001 % w/w
Experimental: as §1, §2, §3, §4, §5

[6] = Solubility in aqueous media; format: physicochemical
[7] = Table 2A: Myristylamine 0.0003 % w/w, Tetronic 1307 0.05, pH 7.8
[8] = Table 2A: Myristylamine 0.0005 % w/w, Tetronic 1307 0.05, pH 7.8
[9] = Table 3: Myristylamine 0.0005 w/v % with WSCP 0.001, NaClO2 0.01, NaCitrate 0.4, T1307 0.05
[10] = Table 3: Myristylamine 0.0005 w/v %, WSCP 0.0, NaClO2 0.0, NaCitrate 0.0, T1307 0.05
[11] = Table 4: Myristylamine 0.0003 w/v % with PHMB 0.00003, Tetronic 1107 0.05, pH 7.8
[12] = Table 4: Myristylamine 0.0003 w/v %, PHMB 0, Tetronic 1107 0.05, pH 7.8
[13] = Table 5: Myristylamine 0.0005 w/v % with Polyquaternium-1 0.001, NaCitrate 0.6, Tetronic 1304 0.05, pH 7.8
[14] = Tween 80 0.0074, Polyquaternium-1 0, pH 7.3, 6 hour
[15] = Tween 80 0.0074, with Polyquaternium-1 0.000075, pH 7.3, 6 hour

CCCCCCCCCCCCCCN [Myristylamine]
Log Drop [1, 7]: 3.67
Log Drop [1, 8]: 4.41
Log Drop [1, 9]: 2.95
Log Drop [1, 10]: 3.29
Log Drop [1, 11]: 3.31
Log Drop [1, 12]: 3.67
Log Drop [1, 13]: 4.52
Log drop at 6 hour [1, 14]: >4.67
Log drop at 6 hour [1, 15]: >4.67
antimicrobial activity against C. albicans ([1]; result in words, Table 2A data): strong antimicrobial activity against C. albicans
Log Drop [2, 7]: >4.34
Log Drop [2, 8]: >4.34
Log Drop [2, 9]: >4.34
Log Drop [2, 10]: >4.34
Log Drop [2, 11]: >4.34
Log Drop [2, 12]: >4.34
Log Drop [2, 13]: >4.34
Log drop at 6 hour [2, 14]: 3.73
Log drop at 6 hour [2, 15]: 3.12
Log Drop [3, 7]: >4.63
Log Drop [3, 8]: >4.63
Log Drop [3, 9]: >4.63
Log Drop [3, 10]: >4.63
Log Drop [3, 11]: >4.63
Log Drop [3, 12]: >4.63
Log Drop [3, 13]: >4.63
Log drop at 6 hour [3, 14]: >4.58
Log drop at 6 hour [3, 15]: >4.58
Log Drop [4, 7]: 1.18
Log Drop [4, 8]: 2.6
Log Drop [4, 9]: 3.1
Log Drop [4, 10]: 1.68
Log Drop [4, 11]: 3.46
Log Drop [4, 12]: 1.18
Log Drop [4, 13]: 3.64
Log drop at 6 hour [4, 14]: 1.19
Log drop at 6 hour [4, 15]: 3.12
Log Drop [5, 7]: 2.87
Log Drop [5, 8]: 4.8
Log Drop [5, 9]: 3.74
Log Drop [5, 10]: 2.93
Log Drop [5, 11]: 4.21
Log Drop [5, 12]: 2.87
Log Drop [5, 13]: 4.69
Log drop at 6 hour [5, 14]: 1.04
Log drop at 6 hour [5, 15]: 3.21
solubility in aqueous solution with acid and surfactant ([6]; acid and surfactant containing an alkyl chain coexist, solution pH below 6): may be dissolved in an aqueous solution
solubility in acid ([6]; ambient temperature, solution pH below 2): insoluble in acid at ambient temperature
solubility in water ([6]; water or basic solution): does not dissolve in water or in a basic solution
